pIC50: −log10 of the molar value. Counter-ions that a name gives are not always drawn. Some results are limits rather than exact numbers.

One may read the pIC50 as the IC50 on a negative log10 scale, so that one unit is a factor of ten.

The first experiment can be described thus: HK1 enzyme inhibitors – biochemical, selectivity assay for HKDC1 inhibitor project, dose response (AID 504763).
Conditions: not given
Compound `O=C(NC1=CC(=O)c2ccccc2C1=O)c1ccccc1` [N-(1,4-dioxo-2-naphthalenyl)benzamide] had a pIC50 of 5.40. On the same count and under the same terms, to `COc1ccc(NC(=O)CSc2ccc(-c3ccco3)nn2)c(OC)c1` [N-(2,4-dimethoxyphenyl)-2-[[6-(2-furanyl)-3-pyridazinyl]thio]acetamide] belongs 5.26; to `O=C(CSc1n[nH]c(-c2cccnc2)n1)Nc1ccc([N+](=O)[O-])cc1Br` [N-(2-bromo-4-nitrophenyl)-2-[(5-pyridin-3-yl-1H-1,2,4-triazol-3-yl)sulfanyl]acetamide], 5.24. With `Cc1cc2nnc(SCC(=O)Nc3cc(S(=O)(=O)N4CCOCC4)ccc3Cl)n2c2ccccc12` [N-(2-chloro-5-morpholin-4-ylsulfonylphenyl)-2-[(5-methyl-[1,2,4]triazolo[4,3-a]quinolin-1-yl)sulfanyl]acetamide], the pIC50 is 4.74. As for `Cc1cc(C(F)F)n2ncc(C(=O)NCCc3ccc(Cl)cc3)c2n1` [N-[2-(4-chlorophenyl)ethyl]-7-(difluoromethyl)-5-methylpyrazolo[1,5-a]pyrimidine-3-carboxamide], the pIC50 is 5.04. The same measure, in the same setting: then `Cc1cc2cc(CCNC(=O)c3ccc(S(=O)(=O)N4CCCC4)cc3)c(O)nc2cc1C` [N-[2-(6,7-dimethyl-2-oxo-1H-quinolin-3-yl)ethyl]-4-pyrrolidin-1-ylsulfonylbenzamide], with 4.82; and `CCN(CC)CCCNC(=O)c1c(O)c2ccccc2n(Cc2ccccc2)c1=O` [N-[3-(diethylamino)propyl]-2-oxidanyl-4-oxidanylidene-1-(phenylmethyl)quinoline-3-carboxamide;hydrochloride], with < 4.10; and `O=C(NC1=C(NC2CCS(=O)(=O)C2)C(=O)c2ccccc2C1=O)c1ccccc1` (stereo unspecified) [N-[3-[(1,1-dioxo-3-thiolanyl)amino]-1,4-dioxo-2-naphthalenyl]benzamide], with 5.20. Still for that read-out and setting: to `CCOc1ccc2c(c1)C(NC(C)=O)C(=O)N2CCN1CCOCC1` (stereo unspecified) [N-[5-ethoxy-1-(2-morpholin-4-ylethyl)-2-oxo-3H-indol-3-yl]acetamide;hydrochloride] belongs < 4.10. Take `CC(=O)NC1C(=O)N(CCN2CCOCC2)c2ccc(C)cc21` (stereo unspecified) [N-[5-methyl-1-(2-morpholin-4-ylethyl)-2-oxidanylidene-3H-indol-3-yl]ethanamide]: the pIC50 was < 4.10. On to `CCCCNC(=O)c1sc(=S)n2c1[nH]c(=O)c1ccccc12` [N-butyl-5-oxo-1-thioxo-4,5-dihydro[1,3]thiazolo[3,4-a]quinazoline-3-carboxamide], for which the pIC50 is 4.79. The same measure, in the same setting: to `O=C1C(SCCO)=C(SCCO)C(=O)c2ccccc21` [NSC-95397] belongs 5.09; to `Cc1cc2cc(CCNC(=O)c3ccc(S(=O)(=O)N4CCOCC4)cc3)c(O)nc2cc1C` [SMR000025588], 4.94. Still for that read-out and setting: then `Cc1ccc(Nc2c3[nH]cccc-3c(=O)n2-c2ccccc2C)cc1C` [SMR000028201], with < 4.10; and `CCCc1nc2oc3c(NCCOCCO)ncnc3c2c2c1COC(C)(C)C2` [SMR000048002], with 4.95; and `O=C1C=C(Nc2ccccc2C(=O)O)c2ccccc2C1=O` [SMR000123743], with 4.77.

The compound `CCOC(=O)C1=C(Cc2ccc(OC)cc2)C(=O)c2ccccc2C1=O` [SMR000136995] showed a pIC50 of 4.89. The same measure, in the same setting: to `Oc1nc2ccccc2n2c(-c3ccccc3)nnc12` [SMR000162081] belongs 4.72; to `NC(=O)C1CCN(C2=C(Cl)C(=O)c3ccccc3C2=O)CC1` [SMR000180199], < 4.10. `CCOC(=O)C1=C(c2ccc(OC)cc2)C(=O)c2ccccc2C1=O` [SMR000185036] had a pIC50 of 5.61. Regarding `Cc1cc(C=C2C(=O)NC(=O)N(c3ccc(Cl)cc3)C2=O)c(C)n1-c1sc2c(c1C#N)CCCC2` [SMR000211212], the pIC50 is < 4.10. With `CCc1nc2c(c(=O)c3ccccc3n2C)c(=O)n1-c1ccc(F)cc1` [SMR000221205], the pIC50 is 5.08. Same read-out and setting: to `O=C1C=CC(=O)C(C2=C3C(=O)N(CCc4ccccc4)CC(=O)N3CCC2)=C1` [SMR000226463] belongs 5.16. The same measure, in the same setting: then `NS(=O)(=O)c1ccc(N=Nc2c(=O)[nH]n3c(=O)c4c([nH]c23)CCCC4)cc1` [SMR000231775], with 4.91. On the same count and under the same terms, to `O=C1NC(=S)N(c2ccc(F)cc2)C(=O)C1=Cc1ccoc1` [SMR000270574] belongs < 4.10; to `O=C1C=C(NCc2ccccc2)c2ccccc2C1=O` [SMR000282064], 5.72; to `N=C(NCc1ccc2c(c1)OCO2)NC(=O)c1ccccc1` [SMR000293067], < 4.10. In the case of `Oc1ccc(O)c(Cc2nc3ccccc3[nH]2)c1` [SMR000298430], the pIC50 was 5.15. On to `O=C(O)c1ccc(NC2=CC(=NS(=O)(=O)c3ccccc3)c3ccccc3C2=O)cc1` [SMR000313157], for which the pIC50 is 5.79. Still for that read-out and setting: to `CC(=O)Nc1ccc(NC2=CC(=NS(=O)(=O)c3cccs3)c3ccccc3C2=O)cc1` [SMR000313158] belongs 5.38. On to `O=C(/C=C/c1cccs1)Nc1scc(-c2ccccc2)c1C(=O)O` [SMR000364116], for which the pIC50 was < 4.10.

Turning to `O=C(O)c1ccc2ncsc2c1` [SMR000372672], the pIC50 was < 4.10. Still for that read-out and setting: to `Cn1c2ccccc2c(=O)c2c(=O)n(-c3ccc(F)cc3)c(-c3cccs3)nc21` [SMR000439524] belongs 5.60; to `Cc1nc2c(c(=O)c3ccccc3n2C)c(=O)n1-c1ccc(F)cc1` [SMR000439525], 5.06; to `CC(C)c1nc2oc3c(NCCO)ncnc3c2c2c1COC(C)(C)C2` [SMR000439744], 5.55. Still for that read-out and setting: to `CC[C@H](C)C=C(C)/C=C/C1=CC2=C(Cl)C(=O)[C@@](C)(OC(C)=O)C(=O)C2=CO1` [SMR000470870] belongs < 4.10; to `O=C1C=C(N2CCOCC2)c2ccccc2C1=O` [SMR000516584], 5.90.

As to `COc1cc(/C=C2/C(=O)NN(c3ccc(Cl)c(Cl)c3)C2=O)cc([N+](=O)[O-])c1O` [SMR000554908], the pIC50 was < 4.10.

Turning to `CCc1ccc(S(=O)(=O)N=C2C=C(Nc3cccc(C(=O)O)c3)C(=O)c3ccccc32)cc1` [SMR000620248], the pIC50 was 5.23. As to `COc1ccc2cc(CCNC(=O)c3ccc(S(=O)(=O)N4CCCC4)cc3)c(O)nc2c1` [SMR000805966], the pIC50 was 5.13. In turn, `Cc1cccc2c1=NC(=O)C=2NNC(=O)c1ccc(NS(=O)(=O)c2cccs2)cc1` [SMR001246714] showed a negative logarithm of the IC50 (pIC50) of 4.28.

For the compound `O=C1C=CC(CN=Nc2ccc([N+](=O)[O-])cn2)C(O)=C1` (stereo unspecified) [SMR001527138], the pIC50 was < 4.10. Same read-out and setting: then `COC1=CC(=O)C(OC)=C(OC)C1=O` [SMR001527280], with 5.19. Same read-out and setting: to `C=c1c(NC(C)=O)c(O)c2nc3n(c2c1O)CCC=3OC(=O)COC` [SMR001565176] belongs 5.67; to `CC(OC(=O)c1cc(O)c2ccccc2c1O)C(=O)Nc1ccc(C(N)=O)cc1` (stereo unspecified) [[1-[(4-aminocarbonylphenyl)amino]-1-oxidanylidene-propan-2-yl] 1,4-bis(oxidanyl)naphthalene-2-carboxylate], < 4.10. Turning to `O=C(COC(=O)c1n[nH]c2ccccc12)c1cccc(Br)c1` [[2-(3-bromophenyl)-2-oxoethyl] 1H-indazole-3-carboxylate], the pIC50 was < 4.10. On to `CCOC(=O)c1c(-n2c(C)cc(C=C3C(=O)NC(=S)NC3=O)c2C)sc2c1CCCC2` [ethyl 2-{3-[(4,6-dioxo-2-thioxotetrahydro-5(2H)-pyrimidinylidene)methyl]-2,5-dimethyl-1H-pyrrol-1-yl}-4,5,6,7-tetrahydro-1-benzothiophene-3-carboxylate], for which the negative-log IC50 (pIC50) is < 4.10.

Staying with this experiment, now noted: inactive by the depositor's call.
Compound `COc1ccc(NC(=O)CSc2ccc(-c3cccnc3)nn2)c(OC)c1` [N-(2,4-dimethoxyphenyl)-2-[[6-(3-pyridinyl)-3-pyridazinyl]thio]acetamide] showed a pIC50 of 4.67. In turn, `CCOc1ccccc1Nc1nnc(SCc2nnc(-c3cc(OC)c(OC)c(OC)c3)o2)s1` [N-(2-ethoxyphenyl)-5-[[5-(3,4,5-trimethoxyphenyl)-1,3,4-oxadiazol-2-yl]methylthio]-1,3,4-thiadiazol-2-amine] had a negative-log IC50 (pIC50) of 4.66. On the same count and under the same terms, to `O=S(=O)(Nc1ccc(O)c2ccccc12)c1cccs1` [N-(4-oxidanylnaphthalen-1-yl)thiophene-2-sulfonamide] belongs 4.26. The compound `N#Cc1c(SCC(=O)Nc2nc3ccc(Br)cc3s2)sc2c(O)cc(=O)[nH]c12` [N-(6-bromo-1,3-benzothiazol-2-yl)-2-[(3-cyano-5-hydroxy-7-oxo-4H-thieno[3,2-b]pyridin-2-yl)thio]acetamide] had a pIC50 of 4.59. Take `O=C1C(Cl)=C(NC(=O)c2ccccc2)C(=O)C(Cl)=C1NC(=O)c1ccccc1` [N-[4-benzamido-2,5-bis(chloranyl)-3,6-bis(oxidanylidene)cyclohexa-1,4-dien-1-yl]benzamide]: the pIC50 is 4.41.

On to `O=S(=O)(Nc1cc(Sc2nc[nH]n2)c(O)c2ccccc12)c1ccccc1` [N-[4-oxidanyl-3-(1H-1,2,4-triazol-5-ylsulfanyl)naphthalen-1-yl]benzenesulfonamide], for which the pIC50 was 4.24. For the compound `COc1ccc(OC)c2nc(O)c(CCNC(=O)c3cc4ccccc4o3)cc12` [SMR000018515], the pIC50 was 4.62.

`COC1=CC(=O)C(C2CC(=O)c3c(O)cc(O)cc3O2)=CC1=O` (stereo unspecified) [SMR001565628] showed a pIC50 of 4.44.

Consider `CN(C)c1ccc(Cc2cc3c(O)ccc(O)c3cc(Cc3ccc(N(C)C)cc3)c2=O)cc1` [SMR001565845], for which the pIC50 was 4.13.

For `COC(=O)c1ccc(CCc2cc(O)c(Br)cc2O)cc1` [SMR001565911], the pIC50 is 4.63. Consider `Nc1ccc(S(=O)(=O)c2cc(O)c3ccccc3c2O)cc1` [SMR001570953], for which the pIC50 is 4.22.

In turn, `COc1ccc(S(=O)(=O)Nc2cc(SCC(=O)O)c(O)c3ccccc23)cc1` [[(1-hydroxy-4-{[(4-methoxyphenyl)sulfonyl]amino}-2-naphthyl)thio]acetic acid] showed a pIC50 of 4.20. With `CCOC(=O)C1=C(Cc2ccc(F)cc2)C(=O)c2ccccc2C1=O` [ethyl 3-(4-fluorobenzyl)-1,4-dioxo-1,4-dihydro-2-naphthalenecarboxylate], the pIC50 is 4.60.

The compound `CCOC(=O)C1=C(Cc2ccc(Cl)cc2)C(=O)c2ccccc2C1=O` [ethyl 3-[(4-chlorophenyl)methyl]-1,4-bis(oxidanylidene)naphthalene-2-carboxylate] had a pIC50 of 4.65.

The values are drawn from BindingDB's records for doi:10.7270/Q23F4N3R (Burnham Center For Chemical Genomics, 2011).
